The target in assay [1] is T1, human NTCP (Homo sapiens, UniProt Q14973).
T1 sequence (Q14973 1-349): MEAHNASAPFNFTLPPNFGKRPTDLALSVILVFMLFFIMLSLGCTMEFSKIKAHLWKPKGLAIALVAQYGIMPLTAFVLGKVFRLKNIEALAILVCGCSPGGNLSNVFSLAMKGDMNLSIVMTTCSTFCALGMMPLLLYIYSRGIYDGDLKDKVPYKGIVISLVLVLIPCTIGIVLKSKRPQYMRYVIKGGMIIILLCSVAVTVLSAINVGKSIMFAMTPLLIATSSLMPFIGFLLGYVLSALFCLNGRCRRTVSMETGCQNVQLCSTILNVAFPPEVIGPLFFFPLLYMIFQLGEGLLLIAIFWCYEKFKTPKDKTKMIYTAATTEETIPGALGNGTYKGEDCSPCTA
The assay is described as follows: Screening fluorescent competitive Myrcludex B-FITC binding assay (96-well, 10 µM drug).

Assay [2] concerns the target T1, human NTCP. The assay is described as follows: Screening taurocholate uptake assay (96-well, [14C]taurocholate, 10 µM drug).
Where [3] appears, read: Prestwick library screen, 10 µM drug, B-score of Myrcludex B-FITC binding.
Setting [4] is: Prestwick library screen, 10 µM drug, B-score of taurocholate uptake.
The mark [5] stands for this setting: combined ranking from functional and binding assay B-scores.
Setting [6] is: screen, 10 µM drug, Myrcludex B-FITC binding.
Where [7] appears, read: combined ranking from functional and binding screening assays.
Where [8] appears, read: screen, 10 µM drug, taurocholate uptake.
The mark [9] stands for this setting: Prestwick library screen, Myrcludex B-FITC binding, 10 µM drug.
The mark [10] stands for this setting: Prestwick library screen, taurocholate uptake, 10 µM drug.
Where [11] appears, read: ranking score beside the functional and binding assay B-scores of the screen.

Each structure is given as a SMILES string. Structures can show the parent of a compound that is named as a salt. Where two headings read alike, the source gives them in different places.

`CCN1C(=O)NC(c2ccccc2)C1=O` (stereo not drawn) [Ethotoin] gave a B-score binding assay at human NTCP [1] (setting [3]) of 0.936. Also, the B-score functional assay on human NTCP [2] (setting [4]) amounted to 3.216. On human NTCP [2] (setting [5]), the Ranking score is 1133.18.
`CC=CC1=C(C(=O)O)N2C(=O)[C@@H](NC(=O)[C@H](N)c3ccc(O)cc3)[C@H]2SC1` [Cefprozil]: the B-score binding assay at human NTCP [1] (setting [6]) is reported as -1.441. In addition, the Ranking score at human NTCP [2] (setting [7]) was 364.678. The compound also yielded a B-score functional assay at human NTCP [2] (setting [8]) of 0.201.
Consider `O=C(O)C(O)C(O)C(=O)O.O=C(c1ccc(F)cc1)C1CCN(CCn2c(=O)[nH]c3ccccc3c2=O)CC1` [Ketanserin tartrate hydrate], for which the B-score binding assay on human NTCP [1] (setting [9]) is -0.046. For the same compound, at human NTCP [2] (setting [10]), the B-score functional assay is listed as 0.482. The compound further displayed a Ranking score at human NTCP [2] (setting [11]) of 727.865.
On human NTCP [1] (setting [9]), `CC(=O)Nc1c(I)c(NC(C)=O)c(I)c(C(=O)O)c1I.O.O` [Diatrizoic acid dihydrate] returned a B-score binding assay of 1.833. The B-score functional assay at human NTCP [2] (setting [10]) is reported as -0.248. The Ranking score at human NTCP [2] (setting [11]) is 739.319.
In the case of `CC(C)C(=O)c1c(C(C)C)nn2ccccc12` [Ibudilast], the B-score binding assay at human NTCP [1] (setting [3]) is recorded as 0.677. Also, the B-score functional assay on human NTCP [2] (setting [4]) amounted to 0.276. For the same compound, the Ranking score on human NTCP [2] (setting [5]) stood at 895.497.
Take `CCCCOc1cc(C(=O)OCCN(CC)CC)ccc1N` [Benoxinate hydrochloride]: on human NTCP [1] (setting [6]), the B-score binding assay is -1.11. Besides, the Ranking score on human NTCP [2] (setting [7]) is listed as 454.623. Besides, the B-score functional assay on human NTCP [2] (setting [8]) amounted to 0.537.
On human NTCP [1] (setting [6]), `C=C1C[C@H]2[C@@H]3C=C(C)C4=CC(=O)CC[C@]4(C)[C@H]3CC[C@]2(C)[C@@]1(OC(C)=O)C(C)=O` [Melengestrol acetate] showed a B-score binding assay of 1.224. In addition, the Ranking score at human NTCP [2] (setting [7]) came out at 323.966. Moreover, the B-score functional assay at human NTCP [2] (setting [8]) is -2.447.
As to `CNS(=O)(=O)Cc1ccc2[nH]cc(CCN(C)C)c2c1` [Sumatriptan succinate], the B-score binding assay at human NTCP [1] is 0.075. At human NTCP [2], this compound registered a B-score functional assay of 0.496 and a Ranking score of 810.351.
With `CCOC1O[C@H]([C@@H](COCc2ccccc2)OCc2ccccc2)[C@H](OCc2ccccc2)[C@H]1O` (stereo partly drawn) [Tribenoside], on human NTCP [1] (setting [6]), the B-score binding assay is given as -0.023. Moreover, the Ranking score on human NTCP [2] (setting [7]) is recorded as 300.985. In addition, the B-score functional assay at human NTCP [2] (setting [8]) is reported as -1.789.
Consider `CCCCC(=O)N(Cc1ccc(-c2ccccc2-c2nnn[nH]2)cc1)[C@H](C(=O)O)C(C)C` [Valsartan], for which the B-score binding assay at human NTCP [1] turned out to be 0.016. Moreover, the Ranking score on human NTCP [2] came to 721.211. The compound further returned a B-score functional assay at human NTCP [2] (setting [10]) of 0.156.
On human NTCP [1] (setting [6]), `CS(=O)(=O)Nc1ccc([N+](=O)[O-])cc1Oc1ccccc1` [Nimesulide] showed a B-score binding assay of 0.652. For the same compound, at human NTCP [2] (setting [7]), the Ranking score was 428.869. Besides, the B-score functional assay at human NTCP [2] (setting [8]) was -1.398.
For `CC1CS(=O)(=O)CCN1/N=C/c1ccc([N+](=O)[O-])o1` (stereo not drawn) [Nifurtimox], in that order: -0.222, 381.366 and -0.767.
On to `O=C1[C@H]2CCCC[C@H]2C(=O)N1CCCCN1CCN(c2nsc3ccccc23)CC1` [Perospirone], for which the B-score binding assay at human NTCP [1] (setting [3]) is 1.438. The B-score functional assay at human NTCP [2] (setting [4]) was determined as 0.093. Also, the Ranking score at human NTCP [2] (setting [5]) stood at 917.333.
Taken in the same sequence, the figures for `C=C(CC)C(=O)c1ccc(OCC(=O)O)c(Cl)c1Cl` [Ethacrynic acid] were 0.672, 0.935 and 1005.99.
The compound `CCCc1nn(C)c2c(=O)[nH]c(-c3cc(S(=O)(=O)N4CCN(C)CC4)ccc3OCC)nc12` [Sildenafil] yielded a B-score binding assay on human NTCP [1] (setting [9]) of 0.383. The compound also gave a B-score functional assay on human NTCP [2] (setting [10]) of 0.011. The same compound came in with a Ranking score on human NTCP [2] (setting [11]) of 755.751.
For `C[C@]12C[C@H](O)[C@H]3[C@@H](CCC4=CC(=O)CC[C@@]43C)[C@@H]1CC[C@@H]2C(=O)CO` [Corticosterone], the B-score binding assay on human NTCP [1] (setting [6]) is on record as -1.468. At human NTCP [2] (setting [7]), the Ranking score is recorded as 434.757. The compound also displayed a B-score functional assay on human NTCP [2] (setting [8]) of 1.754.
At human NTCP [1] (setting [9]), `CC/C(=C(\c1ccccc1)c1ccc(OCCN(C)C)cc1)c1ccccc1` [Tamoxifen citrate] displayed a B-score binding assay of 0.04. Also, at human NTCP [2] (setting [10]), the B-score functional assay is given as 0.142. For the same compound, the Ranking score on human NTCP [2] (setting [11]) worked out at 732.268.
In turn, `CN1CCC2(C)c3cc(O)ccc3N(C)C12.O=C(O)/C=C/C(=O)O` (single isomer, unassigned; (-)) [(-)-Eseroline fumarate salt] came in with a B-score binding assay at human NTCP [1] (setting [9]) of 0.233. In addition, the B-score functional assay at human NTCP [2] (setting [10]) came to 0.19. The Ranking score at human NTCP [2] (setting [11]) is given as 803.481.
Take `CN(C)[C@@H]1C(O)=C(C(N)=O)C(=O)[C@@]2(O)C(O)=C3C(=O)c4c(O)ccc(Cl)c4[C@@](C)(O)[C@H]3C[C@@H]12` [Chlortetracycline hydrochloride]: at human NTCP [1] (setting [9]), the B-score binding assay is 0.571. Also, at human NTCP [2] (setting [10]), the B-score functional assay is on record as -0.045. The same compound returned a Ranking score on human NTCP [2] (setting [11]) of 738.786.
As for `Cc1ncc(C[n+]2csc(CCO)c2C)c(N)n1` [Thiamine hydrochloride], the B-score binding assay at human NTCP [1] (setting [9]) was -0.051. This compound registered a B-score functional assay on human NTCP [2] (setting [10]) of 1.872. The compound further yielded a Ranking score at human NTCP [2] (setting [11]) of 830.8.
Take `COc1ccc2cc(CCC(C)=O)ccc2c1` [Nabumetone]: the B-score binding assay on human NTCP [1] (setting [6]) is recorded as -1.377. The Ranking score at human NTCP [2] (setting [7]) worked out at 286.691. The B-score functional assay on human NTCP [2] (setting [8]) was -0.236.
On to `CC(C)(CO)[C@@H](O)C(=O)NCCCO` [Panthenol (D)], for which, on human NTCP [1] (setting [3]), the B-score binding assay is listed as 0.428. The compound also displayed a B-score functional assay on human NTCP [2] (setting [4]) of 0.501. Also, at human NTCP [2] (setting [5]), the Ranking score was found to be 899.92.
For `CCOc1ccccc1OCC1CNCCO1` (stereo not drawn) [Viloxazine hydrochloride], the B-score binding assay at human NTCP [1] was -0.914. Also, at human NTCP [2], the B-score functional assay is -1.513 and the Ranking score amounted to 214.483.
For `CC(CN(C)C)CN1c2ccccc2Sc2ccccc21.CC(CN(C)C)CN1c2ccccc2Sc2ccccc21.O=C(O)C(O)C(O)C(=O)O` (stereo not drawn) [Trimeprazine tartrate], the B-score binding assay on human NTCP [1] (setting [6]) is recorded as -0.763. In addition, the Ranking score at human NTCP [2] (setting [7]) came out at 352.65. In addition, the B-score functional assay at human NTCP [2] (setting [8]) is recorded as -0.375.
The compound `Cl.O=C(O)/C=C/c1ccc(Cn2ccnc2)cc1` [Ozagrel hydrochloride] had a B-score binding assay on human NTCP [1] (setting [3]) of 1.332. This compound also yielded a B-score functional assay on human NTCP [2] (setting [4]) of 1.392. On human NTCP [2] (setting [5]), the Ranking score came to 1118.41.
Taken in the same sequence, the figures for `CCCCNc1ccc(C(=O)OCCN(C)C)cc1.Cl` [Tetracaïne hydrochloride] were 2.591, 0.799 and 1118.05.
For `O=P(O)(O)C(Cl)(Cl)P(=O)(O)O` [Clodronate], the B-score binding assay at human NTCP [1] (setting [6]) is recorded as -0.166. In addition, the Ranking score at human NTCP [2] (setting [7]) is recorded as 443.089. In addition, the B-score functional assay at human NTCP [2] (setting [8]) is given as -0.468.
Regarding `CC(C)NCC(O)c1ccc(NS(C)(=O)=O)cc1` (stereo not drawn) [Sotalol hydrochloride], at human NTCP [1] (setting [3]), the B-score binding assay amounted to 0.649. The same compound gave a B-score functional assay on human NTCP [2] (setting [4]) of 0.17. The Ranking score on human NTCP [2] (setting [5]) was 866.77.
Consider `COCCCOc1ccnc(C[S+]([O-])c2nc3ccccc3[nH]2)c1C` (stereo not drawn) [Rabeprazole Sodium salt], for which the B-score binding assay on human NTCP [1] (setting [9]) is -0.144. Further, the B-score functional assay on human NTCP [2] (setting [10]) was determined as 1.371. At human NTCP [2] (setting [11]), this compound came in with a Ranking score of 764.457.

(Values after article PMC5681660, “Reduced hepatitis B and D viral entry using clinically applied drugs as novel inhibitors of the bile acid transporter NTCP” (Scientific Reports, 2017).)
